Test results taken from US20110151031A1, “COMPOSITIONS AND METHODS FOR UTILIZING THE SAME” (DBC, LLC, priority 2008, published 2011).

Tests used:
[1] = DPPH radical scavenging test; format: biochemical; conditions: Example 6 at a dose of 0.1 mg/ml; absorbance at 520 nm
Description: (§1) In this example, free radical-scavenging ability was determined as an indicator of antioxidant action. Specifically, free radicals produced by xanthine oxidase were determined by 1,1-diphenyl-2-picrylhydrayil (DPPH, Aldrich). First, xanthine oxidase (Aldrich) was dissolved in 0.01 M phosphate buffer. Hypoxanthine was added to this solution, and the solution was warmed at 37° C. to generate free radicals. To this solution, the composition of Example 6 was added. Further, 0.1 M DPPH solution was added to determine absorbance at 520 nm. Superoxide dismutase (SOD) activity was also determined using Electron Spin Resonance (ESR) in xanthine and xanthine-odixase system. In both cases, vitamin E was used as a positive control.

[2] = Superoxide dismutase (SOD) activity by ESR in xanthine and xanthine-oxidase system; format: biochemical
Description: as §1

SOD activity [2]: 90 units/g
Substance: vitamin E [VitaminE]
free radical-scavenging ability (DPPH) [1]: 460 units/g
